Source: US11739098B2 (BRISTOL-MYERS SQUIBB COMPANY, priority 2017, dated 2023)
pIC50: −log10 of the molar value.

Experiments:
Type in all cases: cell-based
human TLR7 = target: T1, human TLR7 (Homo sapiens, UniProt Q9NYK1); experiment: TLR7 inhibition reporter assay (HEK-Blue cells, SEAP reporter, gardiquimod stimulation); settings: HEK-Blue cells overexpressing human TLR7, SEAP reporter, gardiquimod 7.5 μM
T1 construct: host or cells: HEK-Blue cells (HEK293-derived reporter line)
T1 sequence (Q9NYK1 27-1049): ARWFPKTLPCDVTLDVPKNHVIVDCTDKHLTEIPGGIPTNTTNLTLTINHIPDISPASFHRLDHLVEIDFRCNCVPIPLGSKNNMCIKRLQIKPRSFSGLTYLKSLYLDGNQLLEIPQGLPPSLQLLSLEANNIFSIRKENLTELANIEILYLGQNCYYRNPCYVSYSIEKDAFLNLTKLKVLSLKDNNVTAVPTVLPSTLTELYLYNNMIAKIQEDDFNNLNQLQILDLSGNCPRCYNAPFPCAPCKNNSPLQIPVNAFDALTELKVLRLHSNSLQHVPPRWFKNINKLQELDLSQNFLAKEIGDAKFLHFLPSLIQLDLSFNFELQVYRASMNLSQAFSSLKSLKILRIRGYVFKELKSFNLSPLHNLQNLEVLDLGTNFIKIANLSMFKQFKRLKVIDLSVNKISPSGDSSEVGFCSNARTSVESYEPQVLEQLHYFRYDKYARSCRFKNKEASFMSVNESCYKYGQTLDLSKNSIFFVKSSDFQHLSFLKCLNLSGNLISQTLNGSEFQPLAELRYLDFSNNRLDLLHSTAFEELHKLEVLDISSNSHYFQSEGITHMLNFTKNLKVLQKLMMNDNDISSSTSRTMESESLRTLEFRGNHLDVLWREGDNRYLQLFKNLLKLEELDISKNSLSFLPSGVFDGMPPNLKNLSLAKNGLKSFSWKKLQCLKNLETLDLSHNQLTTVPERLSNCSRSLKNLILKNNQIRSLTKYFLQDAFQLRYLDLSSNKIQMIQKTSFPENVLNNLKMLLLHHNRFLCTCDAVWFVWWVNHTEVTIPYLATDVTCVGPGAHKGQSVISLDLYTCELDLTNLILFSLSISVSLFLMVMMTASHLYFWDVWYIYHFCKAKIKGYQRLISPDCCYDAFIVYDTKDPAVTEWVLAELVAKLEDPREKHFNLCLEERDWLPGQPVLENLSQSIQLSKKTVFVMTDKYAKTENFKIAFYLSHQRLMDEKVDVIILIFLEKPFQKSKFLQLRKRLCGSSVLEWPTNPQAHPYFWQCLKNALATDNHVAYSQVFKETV
How it was run: (§1)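 After 22 h at 37 °C, SEAP secretion was measured from human TLR7-, TLR8- or TLR9-expressing HEK-Blue reporter cells given compound (0.05 nM–50 μM) 30 min before agonist: 7.5 μM gardiquimod, 15.9 μM R848 or 5 nM ODN2006 respectively. Percent inhibition referenced to agonist-plus-DMSO and known-inhibitor wells.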

human TLR9 = target: T2, human TLR9 (Homo sapiens, UniProt Q9NR96); experiment: TLR9 inhibition reporter assay (HEK-Blue cells, SEAP reporter, ODN2006 stimulation); settings: HEK-Blue cells overexpressing human TLR9, SEAP reporter, ODN2006 5 nM
T2 construct: host or cells: HEK-Blue cells (HEK293-derived reporter line)
T2 sequence (Q9NR96 26-1032): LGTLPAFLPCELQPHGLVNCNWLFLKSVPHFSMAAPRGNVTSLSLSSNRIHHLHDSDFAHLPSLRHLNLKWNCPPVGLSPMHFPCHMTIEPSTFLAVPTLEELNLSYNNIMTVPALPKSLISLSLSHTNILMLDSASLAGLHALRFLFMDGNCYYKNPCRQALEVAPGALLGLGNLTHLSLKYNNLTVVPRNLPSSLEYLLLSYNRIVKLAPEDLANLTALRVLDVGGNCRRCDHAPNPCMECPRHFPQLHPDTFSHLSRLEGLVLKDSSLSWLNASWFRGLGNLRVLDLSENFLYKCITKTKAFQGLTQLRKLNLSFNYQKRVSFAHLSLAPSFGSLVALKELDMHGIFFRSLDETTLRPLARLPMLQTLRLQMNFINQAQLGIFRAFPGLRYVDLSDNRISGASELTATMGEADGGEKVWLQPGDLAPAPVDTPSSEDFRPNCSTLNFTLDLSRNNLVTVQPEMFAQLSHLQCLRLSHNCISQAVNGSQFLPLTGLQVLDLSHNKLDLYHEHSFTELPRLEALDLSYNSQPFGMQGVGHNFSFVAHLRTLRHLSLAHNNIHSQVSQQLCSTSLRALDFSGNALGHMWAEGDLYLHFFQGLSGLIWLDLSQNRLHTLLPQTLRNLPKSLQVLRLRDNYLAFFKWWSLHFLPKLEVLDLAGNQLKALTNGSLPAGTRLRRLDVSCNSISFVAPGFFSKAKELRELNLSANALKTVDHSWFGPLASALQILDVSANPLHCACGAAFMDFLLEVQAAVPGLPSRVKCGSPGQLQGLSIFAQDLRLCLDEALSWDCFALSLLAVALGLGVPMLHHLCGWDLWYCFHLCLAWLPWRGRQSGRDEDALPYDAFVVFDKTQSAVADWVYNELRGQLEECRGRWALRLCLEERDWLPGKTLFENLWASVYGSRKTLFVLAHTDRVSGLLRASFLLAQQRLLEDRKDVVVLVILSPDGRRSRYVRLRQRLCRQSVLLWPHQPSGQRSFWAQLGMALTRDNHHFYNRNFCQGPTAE
How it was run: as §1

human TLR8 = target: T3, human TLR8 (Homo sapiens, UniProt Q9NR97); experiment: TLR8 inhibition reporter assay (HEK-Blue cells, SEAP reporter, R848 stimulation); settings: HEK-Blue cells overexpressing human TLR8, SEAP reporter, R848 15.9 μM
T3 construct: host or cells: HEK-Blue cells (HEK293-derived reporter line)
T3 sequence (Q9NR97 27-1041): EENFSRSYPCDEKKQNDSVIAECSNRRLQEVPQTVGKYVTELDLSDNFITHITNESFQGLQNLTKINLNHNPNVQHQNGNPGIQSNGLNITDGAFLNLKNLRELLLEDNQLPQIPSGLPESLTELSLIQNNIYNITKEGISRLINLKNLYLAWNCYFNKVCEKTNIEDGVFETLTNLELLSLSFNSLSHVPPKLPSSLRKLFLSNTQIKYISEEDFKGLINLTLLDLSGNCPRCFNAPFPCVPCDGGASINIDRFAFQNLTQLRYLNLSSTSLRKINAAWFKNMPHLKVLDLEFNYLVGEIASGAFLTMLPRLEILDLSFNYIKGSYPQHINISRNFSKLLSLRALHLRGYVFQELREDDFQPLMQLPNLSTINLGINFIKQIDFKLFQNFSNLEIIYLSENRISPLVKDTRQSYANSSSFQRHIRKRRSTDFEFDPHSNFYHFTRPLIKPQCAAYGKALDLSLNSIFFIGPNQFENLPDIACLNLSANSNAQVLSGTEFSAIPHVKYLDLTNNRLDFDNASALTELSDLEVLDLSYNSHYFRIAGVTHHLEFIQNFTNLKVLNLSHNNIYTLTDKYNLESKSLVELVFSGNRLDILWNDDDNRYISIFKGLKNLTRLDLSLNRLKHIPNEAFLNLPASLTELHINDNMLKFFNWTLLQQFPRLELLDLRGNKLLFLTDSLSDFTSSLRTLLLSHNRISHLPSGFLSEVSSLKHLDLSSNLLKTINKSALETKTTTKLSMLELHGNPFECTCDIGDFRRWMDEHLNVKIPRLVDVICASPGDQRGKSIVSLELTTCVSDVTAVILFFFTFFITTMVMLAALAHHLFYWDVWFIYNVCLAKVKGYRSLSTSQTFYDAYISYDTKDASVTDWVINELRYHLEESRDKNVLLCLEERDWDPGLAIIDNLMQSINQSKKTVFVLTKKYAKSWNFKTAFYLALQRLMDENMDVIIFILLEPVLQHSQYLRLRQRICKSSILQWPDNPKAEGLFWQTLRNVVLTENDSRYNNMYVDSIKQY
How it was run: as §1

Row | pIC50 (human TLR7) | pIC50 (human TLR9) | pIC50 (human TLR8) | Structure (SMILES)
1 | 4.30 to 6.00 | 4.30 to 6.00 | < 4.30 | CCc1c(-c2cccc3c2cnn3C)[nH]c2ccc(C3CCNCC3)cc12 [Example 100, 4-(3-ethyl-5-(piperidin-4-yl)-1H-indol-2-yl)-1-methyl-1H-indazole]
2 | > 7.00 | 6.00 to 7.00 | 6.00 to 7.00 | Fc1cc(-c2[nH]c3ccc(C4CCNCC4)cc3c2CC(F)F)cn2ccnc12 [Example 131, 6-(3-(2,2-difluoroethyl)-5-(piperidin-4-yl)-1H-indol-2-yl)-8-fluoroimidazo[1,2-a] pyridine]
3 | > 7.00 | 6.00 to 7.00 | 4.30 to 6.00 | Cc1cn2cc(-c3[nH]c4ccc(C5CCNCC5)cc4c3C(C)C)cnc2n1 [Example 159, 6-(3-isopropyl-5-(piperidin-4-yl)-1H-indol-2-yl)-2-methylimidazo[1,2-a]pyrimidine]
4 | > 7.00 | 4.30 to 6.00 | > 7.00 | CCc1c(-c2ccnc3[nH]ncc23)[nH]c2ccc(C3CCN(CC(N)=O)CC3)cc12 [Example 289, 2-(4-(3-ethyl-2-(1H-pyrazolo[3,4-b]pyridin-4-yl)-1H-indol-5-yl)piperidin-1-yl)acetamide]
5 | > 7.00 | 4.30 to 6.00 | 6.00 to 7.00 | Cc1cc2ncccc2cc1-c1[nH]c2ccc(C3CCNCC3)cc2c1C(C)C [Example 140, 6-(3-isopropyl-5-(piperidin-4-yl)-1H-indol-2-yl)-7-methylquinoline]
6 | > 7.00 | 4.30 to 6.00 | 6.00 to 7.00 | CN(C)C(=O)CN1CCC(c2ccc3[nH]c(-c4cc(F)c5nccn5c4)c(CC(F)F)c3c2)CC1 [Example 409, 2-(4-(3-(2,2-difluoroethyl)-2-(8-fluoroimidazo[1,2-a]pyridin-6-yl)-1H-indol-5-yl)piperidin-1-yl)-N,N-dimethylacetamide]
7 | 6.00 to 7.00 | 4.30 to 6.00 | 6.00 to 7.00 | CC(C)c1c(-c2ccc3cnnn3c2)[nH]c2ccc(C3CCN(Cc4ncn(C)n4)CC3)cc12 [Example 879, 6-(3-isopropyl-5-(1-((1-methyl-1H-1,2,4-triazol-3-yl)methyl)piperidin-4-yl)-1H-indol-2-yl)-[1,2,3]triazolo[1,5-a]pyridine]
8 | 6.00 to 7.00 | 4.30 to 6.00 | 6.00 to 7.00 | CC(C)c1c(-c2ccnc3[nH]ncc23)[nH]c2ccc(C3CCN(C(=O)c4cc[nH]n4)CC3)cc12 [Example 615, (4-(3-isopropyl-2-(1H-pyrazolo[3,4-b]pyridin-4-yl)-1H-indol-5-yl)piperidin-1-yl)(1H-pyrazol-3-yl)methanone]
9 | 6.00 to 7.00 | 4.30 to 6.00 | 4.30 to 6.00 | Cc1cc2cc(-c3[nH]c4ccc(C5CCN(C(=O)CN(C)C)CC5)cc4c3C(C)C)ccn2n1 [Example 535, 2-(dimethylamino)-1-(4-(3-isopropyl-2-(2-methylpyrazolo[1,5-a]pyridin-5-yl)-1H-indol-5-yl)piperidin-1-yl)ethan-1-one]
10 | 6.00 to 7.00 | 4.30 to 6.00 | < 5.51 | CC(C)c1c(-c2cnc3nn(C)cc3c2)[nH]c2ccc(C3CCN(C(=O)CN(C)C)CC3)cc12 [Example 505, 2-(dimethylamino)-1-(4-(3-isopropyl-2-(2-methyl-2H-pyrazolo[3,4-b]pyridin-5-yl)-1H-indol-5-yl)piperidin-1-yl)ethan-1-one]
11 | > 7.00 | 4.30 to 6.00 | > 7.00 | Cc1cc(-c2[nH]c3ccc(C4CCN(CC(=O)N(C)C)CC4)cc3c2C(C)C)nn2ccnc12 [Example 447, 2-(4-(3-isopropyl-2-(8-methylimidazo[1,2-b]pyridazin-6-yl)-1H-indol-5-yl)piperidin-1-yl)-N,N-dimethylacetamide]
12 | 6.00 to 7.00 | 6.00 to 7.00 | 4.30 to 6.00 | CC(C)c1c(-c2cnc3ccnn3c2)[nH]c2ccc(C3CCN(Cc4cnn(C)c4)CC3)cc12 [Example 932, 6-(3-isopropyl-5-(1-((1-methyl-1H-pyrazol-4-yl)methyl)piperidin-4-yl)-1H-indol-2-yl)pyrazolo[1,5-a]pyrimidine]
13 | > 7.00 | > 7.00 | > 7.00 | Cc1c(-c2ccnc3[nH]ccc23)[nH]c2ccc(C3CCN(C4CCN(C(C)C)CC4)CC3)cc12 [Example 813, 4-(5-(1′-isopropyl-[1,4′-bipiperidin]-4-yl)-3-methyl-1H-indol-2-yl)-1H-pyrrolo[2,3-b]pyridine]
14 | 6.00 to 7.00 | 4.30 to 6.00 | > 7.00 | CCc1c(-c2ncnc3[nH]ccc23)[nH]c2ccc(C3CCNCC3)cc12 [Example 206, 4-(3-ethyl-5-(piperidin-4-yl)-1H-indol-2-yl)-7H-pyrrolo[2,3-d] pyrimidine]
15 | > 7.00 | 6.00 to 7.00 | > 7.00 | CC(C)c1c(-c2cc(C(F)(F)F)c3nccn3c2)[nH]c2ccc(C3CCNCC3)cc12 [Example 136, 6-(3-isopropyl-5-(piperidin-4-yl)-1H-indol-2-yl)-8-(trifluoromethyl)imidazo[1,2-a]pyridine]
